From ChEMBL document CHEMBL1201862, “PubChem BioAssay data set” (2004)
The source made the active and inactive calls.

Columns and labels:
[1] = molecular target: ATP-dependent molecular chaperone HSP82 (Candida albicans (strain WO-1) (Yeast), UniProt C4YTQ8); test: loss of DOC-induced GRE-beta-galactosidase reporter signal, dose response, Hsp90 inhibitor project, S. cerevisiae, luminescence (AID 2400); type: functional, cell-based;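 further: beta-galactosidase luminescence from glucocorticoid response element reporter as proxy for Hsp90 function; inhibitor potency where signal loss means Hsp90 inhibition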
Chain of ATP-dependent molecular chaperone HSP82 (C4YTQ8 whole entry): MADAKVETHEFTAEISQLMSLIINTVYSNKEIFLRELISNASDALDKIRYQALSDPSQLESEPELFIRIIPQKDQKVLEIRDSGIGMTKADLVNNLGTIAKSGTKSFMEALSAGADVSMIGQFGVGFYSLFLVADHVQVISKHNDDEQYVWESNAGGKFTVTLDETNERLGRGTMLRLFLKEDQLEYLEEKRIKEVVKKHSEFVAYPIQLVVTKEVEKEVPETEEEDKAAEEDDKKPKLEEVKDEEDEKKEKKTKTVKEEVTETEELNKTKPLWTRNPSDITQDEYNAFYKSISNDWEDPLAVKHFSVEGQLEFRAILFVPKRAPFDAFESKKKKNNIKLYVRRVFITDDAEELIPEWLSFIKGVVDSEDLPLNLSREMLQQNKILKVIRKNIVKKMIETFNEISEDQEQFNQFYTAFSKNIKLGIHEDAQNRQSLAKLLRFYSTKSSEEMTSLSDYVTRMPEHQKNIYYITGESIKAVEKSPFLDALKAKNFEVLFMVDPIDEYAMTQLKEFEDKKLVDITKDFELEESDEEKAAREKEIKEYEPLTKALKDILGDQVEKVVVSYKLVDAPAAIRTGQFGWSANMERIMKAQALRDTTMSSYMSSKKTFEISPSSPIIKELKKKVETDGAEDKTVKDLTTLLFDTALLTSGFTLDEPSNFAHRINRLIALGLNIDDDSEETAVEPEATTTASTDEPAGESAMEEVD

[2] = C. albicans growth with fluconazole, confirmation, fluorescence, retest (AID 2467); type: functional, cell-based
[3] = molecular target: Serine/threonine-protein phosphatase (Candida dubliniensis (strain CD36 / CBS 7987 / NCPF 3949 / NRRLY-17841) (Yeast), UniProt B9W6M3); test: calcineurin pathway inhibitors in yeast reporter, dose response, S. cerevisiae, CDRE-lacZ, luminescence, secondary (AID 2388); type: functional, cell-based;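 further: yeast reporter cells carrying a calcineurin-responsive lacZ construct stimulated with calcium chloride; luminescent beta-galactosidase reporter signal in whole cells rather than isolated phosphatase activity; potency for inhibition where a drop in reporter signal means calcineurin blockade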
Chain of Serine/threonine-protein phosphatase (B9W6M3 whole entry): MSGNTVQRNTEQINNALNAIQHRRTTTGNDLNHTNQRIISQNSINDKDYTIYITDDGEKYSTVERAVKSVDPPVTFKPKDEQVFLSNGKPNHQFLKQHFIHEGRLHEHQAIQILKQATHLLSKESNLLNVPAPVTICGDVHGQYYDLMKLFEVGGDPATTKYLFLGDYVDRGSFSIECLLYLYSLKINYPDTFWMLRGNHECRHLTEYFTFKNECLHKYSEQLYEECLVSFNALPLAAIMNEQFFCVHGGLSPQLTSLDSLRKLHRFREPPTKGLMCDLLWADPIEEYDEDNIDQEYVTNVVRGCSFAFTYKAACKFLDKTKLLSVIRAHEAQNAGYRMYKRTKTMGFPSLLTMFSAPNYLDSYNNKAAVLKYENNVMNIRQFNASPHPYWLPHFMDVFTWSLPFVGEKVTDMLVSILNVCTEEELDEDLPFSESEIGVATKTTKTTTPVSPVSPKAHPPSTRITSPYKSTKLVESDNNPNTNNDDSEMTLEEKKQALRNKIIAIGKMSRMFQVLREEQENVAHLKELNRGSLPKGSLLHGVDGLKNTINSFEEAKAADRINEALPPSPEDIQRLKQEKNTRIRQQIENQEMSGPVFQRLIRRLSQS

[4] = NIH-3T3 fibroblast cytotoxicity, dose response, cytotoxicity control, cell-based, fluorescence, Alamar Blue, secondary assay (AID 2327); type: functional;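 further: NIH-3T3 mouse fibroblasts cultured with fluconazole at 8 µg/mL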
HEK293 = test: inhibitors of LMP1-driven NF-kB reporter, dose response, cell-based, HEK293, luciferase, cherry-pick (AID 588343); type: functional; conditions: Homo sapiens
Protein skinhead-1 = molecular target: T1, Protein skinhead-1 (Caenorhabditis elegans, UniProt P34707); type: functional
T1 sequence (P34707 whole entry): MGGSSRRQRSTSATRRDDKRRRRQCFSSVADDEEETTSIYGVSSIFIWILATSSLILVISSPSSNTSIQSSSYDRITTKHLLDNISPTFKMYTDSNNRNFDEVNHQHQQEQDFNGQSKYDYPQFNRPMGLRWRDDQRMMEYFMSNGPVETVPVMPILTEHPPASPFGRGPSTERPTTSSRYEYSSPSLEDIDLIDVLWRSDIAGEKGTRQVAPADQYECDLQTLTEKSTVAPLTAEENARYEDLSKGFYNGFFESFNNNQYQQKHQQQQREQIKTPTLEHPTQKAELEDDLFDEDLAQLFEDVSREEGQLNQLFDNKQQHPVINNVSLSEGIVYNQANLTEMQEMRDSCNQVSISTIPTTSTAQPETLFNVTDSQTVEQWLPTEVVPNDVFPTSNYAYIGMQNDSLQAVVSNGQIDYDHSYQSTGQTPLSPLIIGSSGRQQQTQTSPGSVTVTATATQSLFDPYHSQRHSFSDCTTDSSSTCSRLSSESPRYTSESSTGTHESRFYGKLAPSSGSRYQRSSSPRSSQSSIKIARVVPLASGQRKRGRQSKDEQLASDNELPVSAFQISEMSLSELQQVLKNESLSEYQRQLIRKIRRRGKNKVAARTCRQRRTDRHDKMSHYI

HeLa = test: HeLa cell cytotoxicity, dose response, cytotoxicity control, 48 h, plate reader, cherry-picks (AID 504942); type: functional, cell-based; conditions: Homo sapiens
[5] = molecular target: T2, Acyl-homoserine lactone acylase PvdQ (Pseudomonas aeruginosa (strain LESB58), UniProt Q9I194); test: P. aeruginosa PvdQ acylase inhibitors, dose response, biochemical, fluorescence, plate reader and imaging, cherry-picks (AID 493231)
T2 sequence (Q9I194 whole entry): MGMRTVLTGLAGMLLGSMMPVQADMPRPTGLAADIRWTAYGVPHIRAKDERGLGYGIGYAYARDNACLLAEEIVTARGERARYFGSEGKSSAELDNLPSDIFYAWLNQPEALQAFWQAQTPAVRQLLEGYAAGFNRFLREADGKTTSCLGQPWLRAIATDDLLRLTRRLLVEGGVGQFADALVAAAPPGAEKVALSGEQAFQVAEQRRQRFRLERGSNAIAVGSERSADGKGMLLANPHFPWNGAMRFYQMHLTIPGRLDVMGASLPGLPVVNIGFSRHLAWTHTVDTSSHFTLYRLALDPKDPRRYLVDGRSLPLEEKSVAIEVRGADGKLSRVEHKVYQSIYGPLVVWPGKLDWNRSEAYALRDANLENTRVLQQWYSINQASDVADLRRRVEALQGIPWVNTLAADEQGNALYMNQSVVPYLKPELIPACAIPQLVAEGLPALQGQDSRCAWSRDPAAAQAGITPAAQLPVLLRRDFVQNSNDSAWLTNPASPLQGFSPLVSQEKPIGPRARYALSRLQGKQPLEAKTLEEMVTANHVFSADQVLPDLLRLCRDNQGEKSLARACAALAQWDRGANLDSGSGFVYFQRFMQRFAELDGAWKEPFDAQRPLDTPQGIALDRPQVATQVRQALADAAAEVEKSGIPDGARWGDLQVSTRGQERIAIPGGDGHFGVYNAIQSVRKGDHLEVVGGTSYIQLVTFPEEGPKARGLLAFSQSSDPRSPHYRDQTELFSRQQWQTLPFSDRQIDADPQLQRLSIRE

Trypsin = Trypsin (Sus scrofa, UniProt P00761); test: porcine trypsin inhibitors, dose response, selectivity assay for Rce1 protease inhibitor project, biochemical, quenched peptide fluorescence, cherry-pick (AID 488789)
Chain of Trypsin (P00761 whole entry, the tested form may be a part): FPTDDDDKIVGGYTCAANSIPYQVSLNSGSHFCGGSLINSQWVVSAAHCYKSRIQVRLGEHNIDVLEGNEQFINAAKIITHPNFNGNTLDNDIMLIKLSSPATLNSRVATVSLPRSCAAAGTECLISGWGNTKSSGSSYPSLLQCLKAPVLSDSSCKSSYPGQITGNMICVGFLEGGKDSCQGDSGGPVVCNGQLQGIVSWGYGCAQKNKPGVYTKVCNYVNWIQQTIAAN

Hexokinase HKDC1 = molecular target: T3, Hexokinase HKDC1 (Homo sapiens, UniProt Q2TB90); test: SAR analysis of small molecule inhibitors of hexokinase domain containing I (HKDC1). [Related pubchem assays (depositor defined):AID493160, AID493190]; type: functional
T3 sequence (Q2TB90 whole entry): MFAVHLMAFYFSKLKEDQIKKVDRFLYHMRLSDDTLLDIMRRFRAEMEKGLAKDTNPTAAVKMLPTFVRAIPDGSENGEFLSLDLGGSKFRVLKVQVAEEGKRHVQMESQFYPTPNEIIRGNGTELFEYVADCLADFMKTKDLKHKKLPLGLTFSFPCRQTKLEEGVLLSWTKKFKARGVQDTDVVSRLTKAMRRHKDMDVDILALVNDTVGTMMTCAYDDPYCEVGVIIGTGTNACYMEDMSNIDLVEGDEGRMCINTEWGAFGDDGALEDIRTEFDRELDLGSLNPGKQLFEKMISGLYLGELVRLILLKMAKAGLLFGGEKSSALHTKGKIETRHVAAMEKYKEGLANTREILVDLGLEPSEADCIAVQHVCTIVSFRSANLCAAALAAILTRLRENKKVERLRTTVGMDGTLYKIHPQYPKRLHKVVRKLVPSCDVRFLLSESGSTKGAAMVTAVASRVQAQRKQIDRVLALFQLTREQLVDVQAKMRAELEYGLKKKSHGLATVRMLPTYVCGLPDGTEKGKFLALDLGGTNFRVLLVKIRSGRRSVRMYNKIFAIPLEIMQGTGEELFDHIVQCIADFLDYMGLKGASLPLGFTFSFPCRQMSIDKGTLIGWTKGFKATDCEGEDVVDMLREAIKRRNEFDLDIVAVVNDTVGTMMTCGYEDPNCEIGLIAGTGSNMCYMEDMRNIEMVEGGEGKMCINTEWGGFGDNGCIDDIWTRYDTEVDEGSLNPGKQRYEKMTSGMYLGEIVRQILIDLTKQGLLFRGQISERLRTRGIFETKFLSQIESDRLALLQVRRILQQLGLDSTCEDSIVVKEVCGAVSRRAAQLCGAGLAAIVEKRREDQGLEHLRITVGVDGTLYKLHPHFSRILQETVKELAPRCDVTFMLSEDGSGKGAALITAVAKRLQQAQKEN

Hexokinase-1 = molecular target: T4, Hexokinase-1 (Homo sapiens, UniProt P19367); test: SAR analysis of small molecule inhibitors of hexokinase domain containing I (HKDC1) in the hexokinase 1 selectivity assay. [Related pubchem assays (depositor defined):AID493160, AID493190]; type: functional
T4 sequence (P19367 whole entry): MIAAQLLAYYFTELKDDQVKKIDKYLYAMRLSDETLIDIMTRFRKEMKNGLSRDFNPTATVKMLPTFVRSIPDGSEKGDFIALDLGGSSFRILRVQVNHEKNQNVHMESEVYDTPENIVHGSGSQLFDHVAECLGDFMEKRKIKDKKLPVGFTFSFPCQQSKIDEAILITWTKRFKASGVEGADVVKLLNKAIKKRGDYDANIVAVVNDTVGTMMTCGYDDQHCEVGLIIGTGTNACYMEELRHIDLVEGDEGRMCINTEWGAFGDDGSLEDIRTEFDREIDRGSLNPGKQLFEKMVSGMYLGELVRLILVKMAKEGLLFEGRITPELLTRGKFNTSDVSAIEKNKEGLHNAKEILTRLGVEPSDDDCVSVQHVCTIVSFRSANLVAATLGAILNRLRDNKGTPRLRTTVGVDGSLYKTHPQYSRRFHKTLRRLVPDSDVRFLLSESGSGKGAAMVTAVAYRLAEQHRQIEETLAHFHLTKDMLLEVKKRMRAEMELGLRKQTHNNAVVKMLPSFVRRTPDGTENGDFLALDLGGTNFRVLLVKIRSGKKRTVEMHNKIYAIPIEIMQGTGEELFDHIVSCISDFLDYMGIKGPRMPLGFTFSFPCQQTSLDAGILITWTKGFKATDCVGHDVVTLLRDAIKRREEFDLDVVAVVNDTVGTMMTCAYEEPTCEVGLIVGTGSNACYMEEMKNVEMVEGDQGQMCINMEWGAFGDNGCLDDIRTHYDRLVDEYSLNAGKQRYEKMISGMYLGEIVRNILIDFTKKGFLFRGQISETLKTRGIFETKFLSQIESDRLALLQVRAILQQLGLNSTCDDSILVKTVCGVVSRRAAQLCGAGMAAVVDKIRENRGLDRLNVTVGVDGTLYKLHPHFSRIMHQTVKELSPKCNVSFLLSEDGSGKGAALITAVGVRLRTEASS

BJ [6] = test: cytotoxicity toward BJ-TERT fibroblasts, dose response, cell-based, RAS-independent, luminescence (AID 1933); type: functional; conditions: Homo sapiens
Streptococcus = test: Group A Streptococcus viability loss, dose response, counter-screen for streptokinase expression inhibitor project, luminescence, BacTiterGlo (AID 1915); type: functional, organism-based;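 further: potency for reduction of bacterial viability or growth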
[7] = molecular target: T5, Polyadenylate-binding protein 1 (Homo sapiens, UniProt P11940); test: PABP1 MLLE–PAM2 interaction inhibitors, dose response, miRNA deadenylation inhibitor project, biochemical, fluorescence polarization, Cy5-PAM2 peptide, secondary (AID 602260); type: functional; conditions: read-out: IC50_Mean
T5 sequence (P11940 whole entry): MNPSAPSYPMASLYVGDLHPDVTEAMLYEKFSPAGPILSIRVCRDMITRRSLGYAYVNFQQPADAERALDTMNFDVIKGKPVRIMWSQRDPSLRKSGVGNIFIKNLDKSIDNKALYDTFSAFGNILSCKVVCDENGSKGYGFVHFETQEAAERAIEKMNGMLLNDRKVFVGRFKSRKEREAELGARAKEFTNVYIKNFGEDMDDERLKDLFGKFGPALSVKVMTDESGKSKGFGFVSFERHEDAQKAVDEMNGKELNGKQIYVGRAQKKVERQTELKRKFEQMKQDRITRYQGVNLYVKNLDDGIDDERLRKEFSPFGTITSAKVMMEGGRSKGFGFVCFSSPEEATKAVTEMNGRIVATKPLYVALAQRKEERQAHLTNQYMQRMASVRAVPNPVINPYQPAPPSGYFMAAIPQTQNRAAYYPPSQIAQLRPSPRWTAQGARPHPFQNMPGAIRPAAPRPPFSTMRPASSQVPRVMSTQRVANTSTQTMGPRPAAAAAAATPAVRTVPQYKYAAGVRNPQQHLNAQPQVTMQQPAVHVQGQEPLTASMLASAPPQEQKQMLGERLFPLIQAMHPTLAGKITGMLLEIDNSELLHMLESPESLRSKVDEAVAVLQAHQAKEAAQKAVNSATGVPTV

[8] = cytotoxicity toward NIH3T3 fibroblasts, dose response, counter-screen, cell-based, ATP luminescence, mouse fibroblasts (AID 2010); type: functional;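 further: cells exposed to compound for about 90 hours before reading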
BJ [9] = test: cytotoxicity toward BJ-TERT-LT-ST fibroblasts, dose response, cell-based, RAS-independent, luminescence (AID 1935); type: functional; conditions: Homo sapiens;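 further: BJ fibroblasts immortalized with TERT plus LT and ST oncogenes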
BJ [10] = test: cells; type: functional, cell-based; conditions: Homo sapiens
Nonstructural protein 1 = Nonstructural protein 1 (Influenza A virus, UniProt Q194T2); type: functional, Influenza A virus (A/California/07/2009(H1N1))
Chain of Nonstructural protein 1 (Q194T2 whole entry): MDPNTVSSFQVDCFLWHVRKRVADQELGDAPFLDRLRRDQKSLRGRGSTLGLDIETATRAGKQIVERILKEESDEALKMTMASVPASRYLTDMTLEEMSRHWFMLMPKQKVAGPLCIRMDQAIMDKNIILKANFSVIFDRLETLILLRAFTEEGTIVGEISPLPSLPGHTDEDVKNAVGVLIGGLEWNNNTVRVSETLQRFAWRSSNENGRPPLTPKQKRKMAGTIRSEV

Vero [11] = test: cells; type: functional; conditions: Chlorocebus sabaeus
[12] = molecular target: T5, Polyadenylate-binding protein 1; test: PABP1 MLLE–PAM2 binding inhibitor potency, dose response, biochemical, fluorescence polarization, FITC-PAM2 peptide (AID 602259); type: functional; conditions: read-out: IC50_Mean
[13] = cytotoxicity toward DRD oncogenic fibroblasts, dose response, cell-based, non-viral oncogenic, luminescence (AID 1934); type: functional; conditions: Homo sapiens
Vero [14] = test: Vero cell cytotoxicity, cytotoxicity control for flavivirus capping enzyme inhibitors (AID 588742); type: functional; conditions: Chlorocebus sabaeus
[15] = inhibitors of intracellular T. cruzi replication, confirmation, NIH3T3 host cells, beta-gal luminescence (AID 2044); type: functional, cell-based;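 further: intracellular parasites grown in NIH/3T3 mouse fibroblasts as host cells; luminescent beta-galactosidase reporter signal from transgenic T. cruzi replicating inside host cells; inhibitors lower the luminescence signal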
[16] = system: Streptococcus sp. 'group A'; test: growth inhibition of control SK(-) GAS strain, dose response, counter-screen for streptokinase expression inhibitor project, luminescence, kanamycin, BacTiterGlo, confirmation (AID 1900); type: functional, organism-based

CCOc1ccc(/C=C/C2=CC(C)(C)NC(S)=N2)cc1
EC50 [1]: > 150 µM (inactive) | EC50 [2]: 1.95 µM (active) | EC50 [3]: > 180 µM (inactive) | EC50 [4]: 17.1 µM (active)

c1ccn2cc(-c3ccc4c(c3)OCCO4)nc2c1
AC50 (HEK293): 1.53 µM (active) | IC50 (Protein skinhead-1): > 100 µM (inactive) | AC50 (HeLa): 55.2 µM (active) | AC50 [5]: 4.31 µM (active) | AC50 (Trypsin): 6.17 µM (active)

Cc1ccc(Cn2c(/C=C/c3cccnc3)nc3ccccc3c2=O)cc1
IC50 (Hexokinase HKDC1): > 80 µM (inactive) | IC50 (Hexokinase-1): > 80 µM (inactive)

COc1ccc(/C(C#N)=C/c2cccnc2)cc1
AC50 (HeLa): 254 µM (active) | AC50 [5]: 9.73 µM (active)

CCc1ccc2c(c1)C1(NN=C(c3ccccc3)S1)C(=O)N2 (stereo unspecified)
EC50 (BJ [6]): 13.7 µM (inconclusive) | EC50 (Streptococcus): 1.84 µM (active) | IC50 [7]: > 66 µM (inactive) | EC50 [8]: 5.31 µM (active) | EC50 (BJ [9]): 17.7 µM (inconclusive) | EC50 (BJ [10]): 86.3 µM (active) | IC50 (Nonstructural protein 1): 45.5 µM (active) | CC50 (Vero [11]): 14.9 µM (active) | IC50 [12]: > 66 µM (inactive) | EC50 [13]: 49.4 µM (active) | CC50 (Vero [14]): 7.61 µM (active) | EC50 [15]: 0.524 µM (active) | EC50 [16]: 0.278 µM (active)
